From patent US9944677B2, “Selective inhibitor of angiotensin II” (GEORGETOWN UNIVERSITY, priority 2013, dated 2018) come the findings set out here.

This data set has as its system rats. The data set is described as follows: Behavioral arousal, locomotion and grooming behavior. Conditions: rat, in vivo.

Ends that are not written are not given here.

For the substance MAGILSG [PEP7, MAGILSG (SEQ ID NO: 1)], the “Effect on behavioral arousal, locomotion and grooming behavior” value is reported as “did not have an effect”.
